Results published in ChEMBL document CHEMBL4425081, “Design and Development of Microsomal Prostaglandin E2 Synthase-1 Inhibitors: Challenges and Future Directions” (J Med Chem, 2016).
pIC50: −log10 of the molar value.

Experiments:
Prostaglandin E synthase [1] = molecular target: T1, Prostaglandin E synthase (Homo sapiens, UniProt O14684); test: Inhibition of human mPGES-1 expressed in CHO-K1 cells using PGH2 as substrate assessed as PGE2 formation preincubated for 20 mins followed by addition of substrate measured after 60 secs by HTRF assay; format: cell-based
T1 sequence (O14684 whole entry): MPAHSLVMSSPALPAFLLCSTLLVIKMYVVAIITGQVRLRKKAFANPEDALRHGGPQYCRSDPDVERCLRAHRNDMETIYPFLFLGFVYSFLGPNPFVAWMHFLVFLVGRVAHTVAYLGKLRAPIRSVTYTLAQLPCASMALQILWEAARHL

Prostaglandin E synthase [2] = molecular target: T1, Prostaglandin E synthase; test: Inhibition of mPGES-1 in human A549 cells assessed as PGE2[…] formation preincubated for 60 mins prior to IL-beta stimulation measured after 24 hrs by EIA; format: cell-based
[3] = molecular target: T2, Prostaglandin G/H synthase 1 (Ovis aries, UniProt P05979); test: Inhibition of ovine COX-1 assessed as 12-HHT formation preincubated for 5 mins followed by addition of arachidonic acid as substrate measured after 5 mins by HPLC analysis
T2 sequence (P05979 whole entry): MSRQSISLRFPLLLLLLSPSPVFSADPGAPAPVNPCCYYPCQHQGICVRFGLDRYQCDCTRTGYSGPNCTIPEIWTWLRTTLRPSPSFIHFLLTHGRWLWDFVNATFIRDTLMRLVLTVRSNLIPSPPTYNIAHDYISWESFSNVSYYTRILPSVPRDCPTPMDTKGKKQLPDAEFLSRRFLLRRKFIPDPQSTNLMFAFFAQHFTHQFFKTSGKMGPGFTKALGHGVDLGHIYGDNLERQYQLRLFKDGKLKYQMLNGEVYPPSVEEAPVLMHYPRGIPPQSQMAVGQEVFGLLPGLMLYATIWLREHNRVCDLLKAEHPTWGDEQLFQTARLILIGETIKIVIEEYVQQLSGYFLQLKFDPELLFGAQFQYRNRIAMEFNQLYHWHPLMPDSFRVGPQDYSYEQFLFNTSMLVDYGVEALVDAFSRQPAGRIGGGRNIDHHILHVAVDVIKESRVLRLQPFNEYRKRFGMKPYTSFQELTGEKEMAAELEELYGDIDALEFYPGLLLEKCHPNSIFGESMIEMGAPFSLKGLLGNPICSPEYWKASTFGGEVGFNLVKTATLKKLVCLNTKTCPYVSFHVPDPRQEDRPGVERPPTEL

[4] = molecular target: T3, Arachidonate 5-lipoxygenase-activating protein (Homo sapiens, UniProt P20292); test: Antagonist activity at FLAP in human PMNC assessed as inhibition of A23187-induced LTB4 biosynthesis pre-incubated for 2 mins followed by addition of A23187 measured after 5 mins by radioimmunoassay
T3 sequence (P20292 whole entry): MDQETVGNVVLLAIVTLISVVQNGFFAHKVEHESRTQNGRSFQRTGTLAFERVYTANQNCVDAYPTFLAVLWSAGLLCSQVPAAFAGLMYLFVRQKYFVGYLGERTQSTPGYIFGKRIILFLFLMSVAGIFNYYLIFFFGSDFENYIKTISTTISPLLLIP

Compound	pIC50 (Prostaglandin E synthase [1])	pIC50 (Prostaglandin E synthase [2])	pIC50 [3]	pIC50 [4]
Cn1c(Nc2cc(CNC(=O)C3(C(F)(F)F)CC3)ccc2Cl)nc2cc(C(=O)NCC3CC3)c(OCC(F)F)cc21	10.00	8.92		
CC(C)c1ccc2c(c1)c(SC(C)(C)C)c(CC(C)(C)C(=O)O)n2Cc1ccc(Cl)cc1			5.10	8.60
